Results from patent publication US20240307283A1, “COMPOSITIONS AND METHODS FOR DECREASING PIGMENTATION” (The General Hospital Corporation, priority 2021, published 2024).

Assays:
zebrafish melanocytes = assay: Chemical treatment of zebrafish, melanocytic brightness; format: in vivo; details: 24 hours, 100 μM 2,3BD or 50 μM DCC
Method: Wildtype Tübingen zebrafish were placed in a 24 well plate at 72 hours post-fertilization, with 10 larvae per well for a total twenty larvae per condition. Larvae were treated for 24 hours with either 2,3BD (1 μM, 10 μM, 100 μM, 1 mM; Sigma Aldrich, #B85307), DCC (1 μM, 10 μM, 50 μM, 100 μM; Sigma Aldrich, #D80002), or DMSO (1:500) in E3 embryo medium. At 4 days post fertilization, larvae were imaged using a Nikon SMZ18 Stereomicroscope. Melanocytes from at least 5 zebrafish embryos of each group for each experiment were analyzed using the FIJI software enabling pixel-based color quantification.

NNT = target: T1, NNT (Homo sapiens, UniProt Q13423); assay: GSH/GSSG ratio (indirect endpoint of NNT enzyme activity) in primary melanocytes; format: cell-based; set-up: endogenous in cells; host or cells: primary human melanocytes (isolated from neonatal foreskins); details: different doses, 24 hours
T1 sequence (Q13423 44-1086): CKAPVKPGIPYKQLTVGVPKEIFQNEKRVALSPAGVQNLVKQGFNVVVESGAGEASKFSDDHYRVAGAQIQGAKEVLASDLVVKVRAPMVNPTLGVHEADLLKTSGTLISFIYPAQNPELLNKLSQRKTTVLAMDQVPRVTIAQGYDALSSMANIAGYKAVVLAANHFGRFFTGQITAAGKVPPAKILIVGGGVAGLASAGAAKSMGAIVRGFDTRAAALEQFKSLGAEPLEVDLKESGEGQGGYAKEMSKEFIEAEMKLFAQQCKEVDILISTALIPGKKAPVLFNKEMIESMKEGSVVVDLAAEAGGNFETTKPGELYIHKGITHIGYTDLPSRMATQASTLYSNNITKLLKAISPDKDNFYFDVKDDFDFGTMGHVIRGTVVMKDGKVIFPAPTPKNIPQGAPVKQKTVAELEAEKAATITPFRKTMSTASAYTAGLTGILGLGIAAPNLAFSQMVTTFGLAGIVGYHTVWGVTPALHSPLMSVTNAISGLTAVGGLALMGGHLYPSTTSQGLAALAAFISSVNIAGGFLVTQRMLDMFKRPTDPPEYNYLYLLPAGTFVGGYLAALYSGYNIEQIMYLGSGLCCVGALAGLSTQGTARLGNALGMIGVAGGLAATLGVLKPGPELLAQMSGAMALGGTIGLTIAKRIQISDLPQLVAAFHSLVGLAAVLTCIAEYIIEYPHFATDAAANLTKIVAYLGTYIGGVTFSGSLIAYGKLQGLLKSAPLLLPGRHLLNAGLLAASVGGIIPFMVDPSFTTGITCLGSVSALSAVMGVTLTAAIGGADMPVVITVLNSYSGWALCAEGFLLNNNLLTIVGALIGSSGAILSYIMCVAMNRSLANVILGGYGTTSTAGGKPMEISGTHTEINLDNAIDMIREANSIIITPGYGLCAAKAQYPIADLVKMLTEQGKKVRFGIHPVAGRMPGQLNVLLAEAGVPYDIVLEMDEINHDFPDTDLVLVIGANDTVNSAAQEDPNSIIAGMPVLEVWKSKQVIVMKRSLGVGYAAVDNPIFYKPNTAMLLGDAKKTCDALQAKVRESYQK
Method: Glutathione measurements: Cell lysates were prepared from equal numbers of cells after 24 h of DCC or 2,3BD treatment, following the manufacturer's protocols. Seventy-two h post siRNA treatment or overexpression of NNT and their corresponding controls, glutathione levels were determined using the GSH/GSSG-Glo assay (Promega, #V6611) and luminescence was measured using an EnVision 2104 Multilabel Reader (PerkinElmer).

murine Melan-A cells = assay: Melanin content of Melan-A cells with NNT inhibitors; format: cell-based, mouse; details: 2 mM, FIG. 3A
Method: Murine Melan-A (Bennett et al., 1987) cells were obtained from the Wellcome Trust Functional Genomics Cell Bank. Melan-A cells were grown in RPMI 1640 supplemented with 10% FBS or FetalPlex (Gemini Bio-Products, #100-602), 100,000 U/L penicillin, 100 mg/L streptomycin sulphate, 100× Glutamax, and 200 nM TPA.
In vitro culture with NNT inhibitors: 2,3-Butanedione 97% (2,3 BD) (Sigma Aldrich, #B85307) (1 μM, 10 μM, 100 μM, 2 mM), N,N-Dicyclohexylcarbodiimide (DCC) (Sigma Aldrich, #D80002) (1 mM, 2 mM, 10 mM), and Palmitoyl coenzyme A lithium salt (Sigma Aldrich, #P9716) (10 μM, 2 mM) were reconstituted with DMSO (American Type Culture Collection, 4-X).
Melanin quantification: Equal numbers of cells were plated in 6-well plates. The cells were then harvested 72-96 hours post siRNA or NNT inhibitors compounds, as indicated in the legends, pelleted, washed in PBS and counted. 10^6 cells were used for measurement of protein concentration with the Pierce BCA protein assay (Thermo Fisher Scientific, #23225) and 10^6 cells were resuspended in 60 μl of 1 N NaOH solution and incubated at 60° C. for 2 h or until the melanin was completely dissolved. After cooling down to room temperature, samples were centrifuged at 500×g for 10 min and the supernatants were loaded onto a 96-well plate. The melanin content was determined by measuring the absorbance at 405 nm on an Envision plate reader, compared with a melanin standard (0 to 50 μg/ml; Sigma Aldrich, #M8631). Melanin content was expressed as micrograms per milligram of protein.

SMILES: CC(=O)C(C)=O [2,3BD, 2,3-Butanedione]
- darkening of zebrafish embryos (melanocytic brightness) (zebrafish melanocytes): significant darkening
- GSH/GSSG ratio (NNT): decreased GSH/GSSG ratios
- melanin content (murine Melan-A cells): increased melanin content
